Measurements from patent publication US6649784B2, “Aspartyl dipeptide ester derivatives and sweeteners” (Ajinomoto Co., Inc., priority 1999, dated 2003).

Columns and labels:
[1] = times that of sucrose/sugar; reported in WO 94/11391 (b9: compared with 2, 5 and 10% sucrose solutions); cited from earlier work
[2] = organoleptic (sensory) test of sweetening potency; details: for Sweetening potency: value compared with a 4% sucrose aqueous solution
Text: For example, a sweetening potency of N-[N-[3-(3,4-dihydroxyphenyl)-3-methylbutyl]-L-α-aspartyl]-L-phenylalanine 1-methyl ester was approximately 50,000 times (relative to sugar), and a sweetening potency of N-[N-[3-(3,4,5-trihydroxyphenyl)propyl]-L-α-aspartyl]-L-phenylalanine 1-methyl ester was approximately 25,000 times (relative to sugar).
The structures and the results of the sensory test on some aspartyl dipeptide ester derivatives (represented by the following general formula (1)) formed are shown in Table 1.

COC(=O)[C@H](Cc1ccccc1)NC(=O)[C@H](CC(=O)O)NCCC(C)c1ccccc1 (mixture of isomers) [N-[N-[(RS)-3-phenylbutyl]-L-α-aspartyl]-L-phenylalanine 1-methyl ester]
sweetening potency (degree of sweetness) [1]: 1,200 times

COC(=O)[C@H](Cc1ccccc1)NC(=O)[C@H](CC(=O)O)NCCCc1ccc(O)cc1O [Compound 1, N-[N-[3-(2,4-dihydroxyphenyl)propyl]-L-α-aspartyl]-L-phenylalanine 1-methyl Ester]
Sweetening potency (relative to sugar) [2]: 10,000 times
Sweetening potency [2]: 10000

COC(=O)[C@H](Cc1ccccc1)NC(=O)[C@H](CC(=O)O)NCCCc1ccc(O)c(O)c1 [Compound 2, N-[N-[3-(3,4-dihydroxyphenyl)propyl]-L-α-aspartyl]-L-phenylalanine 1-methyl Ester]
Sweetening potency (relative to sugar) [2]: 15,000 times
Sweetening potency [2]: 15000

COC(=O)[C@H](Cc1ccccc1)NC(=O)[C@H](CC(=O)O)NCCCc1ccc(O)c(O)c1O [Compound 3, N-[N-[3-(2,3,4-trihydroxyphenyl)propyl]-L-α-aspartyl]-L-phenylalanine 1-methyl Ester]
Sweetening potency (relative to sugar) [2]: 10,000 times
Sweetening potency [2]: 10000

COC(=O)[C@H](Cc1ccccc1)NC(=O)[C@H](CC(=O)O)NCCCc1cc(O)c(O)c(O)c1 [Compound 4, N-[N-[3-(3,4,5-trihydroxyphenyl)propyl]-L-α-aspartyl]-L-phenylalanine 1-methyl Ester]
Sweetening potency (relative to sugar) ([2]; listed as Example 4): 25,000 times
Sweetening potency (relative to sugar) ([2]; listed as N-[N-[3-(3,4,5-trihydroxyphenyl)propyl]-L-α-aspartyl]-L-phenylalanine 1-methyl e): approximately 25,000 times
Sweetening potency [2]: 25000

COC(=O)[C@H](Cc1ccccc1)NC(=O)[C@H](CC(=O)O)NCCC(C)(C)c1ccc(O)c(O)c1 [Compound 5, N-[N-[3-(3,4-dihydroxyphenyl)-3-methylbutyl]-L-α-aspartyl]-L-phenylalanine 1-methyl Ester]
Sweetening potency (relative to sugar) ([2]; listed as Example 5): 50,000 times
Sweetening potency (relative to sugar) ([2]; listed as N-[N-[3-(3,4-dihydroxyphenyl)-3-methylbutyl]-L-α-aspartyl]-L-phenylalanine 1-met): approximately 50,000 times
Sweetening potency [2]: 50000

COC(=O)[C@H](Cc1ccccc1)NC(=O)[C@H](CC(=O)O)NCCC(C)(C)C [N-[N-(3,3-dimethylbutyl)-L-α-aspartyl]-L-phenylalanine 1-methyl ester]
sweetening potency (degree of sweetness) [1]: 10,000 times

COC(=O)[C@H](Cc1ccccc1)NC(=O)[C@H](CC(=O)O)NCCCc1ccccc1 [N-[N-(3-phenylpropyl)-L-α-aspartyl]-L-phenylalanine 1-methyl ester]
sweetening potency (degree of sweetness) [1]: 1,500 times

COC(=O)[C@H](Cc1ccccc1)NC(=O)[C@H](CC(=O)O)NCCCc1ccc(O)c(OC)c1 [N-[N-[3-(3-methoxy-4-hydroxyphenyl)propyl]-L-α-aspartyl]-L-phenylalanine 1-methyl ester]
sweetening potency (degree of sweetness) [1]: 2,500 times
